Results published in US9828375B2, “4-position substituted pyrazolopyrimidine derivative, and use thereof in drug preparation” (Guangxi Wuzhou Pharmaceuticals (Group) Co., Ltd., priority 2012, dated 2017).

tested on: human colorectal carcinoma cell line HCT116; assay: In vitro tumor cell proliferation inhibition (MTT): HCT116; type: cell-based; details: 72 hours, read-out: Proliferation inhibition activity (IC50) HCT 116
Text: The purpose of the experiment was to test the inhibition activity of the compounds of the invention for in vitro human tumor cell proliferation by the methyl thiazolyl tetrazolium (MTT) colorimetry.
Main reagents: RPMI-1640, fetal bovine serum, pancreatin, etc. were purchased from Gibco BRL Company (Invitrogen Corporation, USA) and IMDM medium that was purchased from American Type Culture Collection (ATCC). Methyl thiazolyl tetrazolium (MTT) and dimethyl sulfoxide (DMSO) were products from Sigma Company (USA). Pyrazolopyrimidine derivatives were composed by the inventor. During in vitro experiment, 100% DMSO was prepared into 10 mM storage solution, the solution was stored in a refrigerator at −20° C. for future use, and was diluted to the required concentration with complete culture solution before use.
Cell line and culture: Human leukemia cell line MV4-11, Jurkat, K562, human thyrophyma cell line TT, human gastric carcinoma cell line MKN-45, human malignant melanoma cell lines A375 and A875, human pancreatic carcinoma cell line panc-1, human cervical carcinoma cell line HELA, human colorectal carcinoma cell line HCT116, etc. were purchased from American type culture collection and were preserved by this laboratory. All leukemia cell lines (except MV4-11), gastric carcinoma cell lines and thyrophyma cell lines were cultured in RPMI-1640 complete medium containing 10% fetal bovine serum, 100 U/mL penicillin and 100 μg/mL streptomycin at 37° C. in 5% CO2. The remaining cell lines were cultured in DMEM complete medium containing 10% fetal bovine serum (containing 20% MV4-11 cell), 100 U/mL penicillin and 100 µg/mL streptomycin at 37° C. in 5% CO2.
Cell suspension with cell concentration of 1-2×10^4/mL was adjusted with the complete cell medium and inoculated in a 96-well plate, with each well filled with 200 μl cell suspension that was cultured overnight. On the next day, supernatant was sucked and abandoned (supernatant was sucked upon centrifugation of suspension cells), and then cells were processed with test compounds at gradient concentrations respectively. Meanwhile, a negative control group free from drug and a solvent control group with equal volume were set, and the DMSO concentration was 0.1%. Each dose group was provided with three wells and cultured at 37° C. in 5% CO2. After 72 hours, 20 μl 5 mg/mL MTT reagent was added to each well, and cultured for another 2 to 4 hours, the supernatant was abandoned; 150 μL DMSO was added to each well again, vibrated and mixed evenly for 15 minutes; the absorbance (A) values (proportional to living cell amount) were determined with a microplate reader (λ=570 nm) and averaged. […] Experiment was repeated for 3 times at least. Experimental data were expressed with means, data statistics were tested by t, and P<0.05 means that difference has a statistical significance. The cell proliferation inhibition effects of all compounds as follows are expressed by IC50 or inhibition rate.

Row | Compound | IC50
1 | O=C(Nc1ccc(Oc2ncnc3[nH]ncc23)cc1)Nc1ccc(Cl)c(C(F)(F)F)c1 [4a-2] | < 50 µM
2 | O=C(Nc1ccccc1)Nc1ccc(Oc2ncnc3[nH]ncc23)cc1 [4a-15, 1-(4-((1H-pyrazolopyrimidine-4-yl)oxy)phenyl)-3-phenylurea] | < 50 µM
3 | CC(C)(C)c1cc(NC(=O)Nc2ccc(Oc3ncnc4[nH]ncc34)cc2)n(-c2ccccc2)n1 [4a-24] | 6.75 µM
4 | CC(C)c1cccc(NC(=O)Nc2ccc(Oc3ncnc4[nH]ncc34)c(F)c2)c1 [4a-7, 1-(4-((1H-pyrazolopyrimidine-4-yl)oxy)-3-fluorophenyl)-3-(3-isopropylphenyl)urea] | < 50 µM
5 | O=C(Nc1ccc(Oc2ncnc3[nH]ncc23)c(F)c1)Nc1ccc(Cl)c(C(F)(F)F)c1 [4a-10, 1-(4-((1H-pyrazolopyrimidine-4-yl)oxy)-3-fluorophenyl)-3-(4-chloro-3-(trifluoromethyl)phenyl)urea] | < 50 µM
6 | O=C(Nc1ccc(Oc2ncnc3[nH]ncc23)cc1)Nc1ccc(C(F)(F)F)cc1Cl [4a-13] | < 50 µM
7 | O=C(Nc1ccc(C(F)(F)F)cc1)Nc1ccc(Oc2ncnc3[nH]ncc23)c(F)c1 [4a-9, 1-(4-((1H-pyrazolopyrimidine-4-yl)oxy)-3-fluorophenyl)-3-(4-(trifluoromethyl)phenyl)urea] | 4.56 µM
8 | C[C@H](NC(=O)Nc1ccc(Oc2ncnc3[nH]ncc23)cc1)c1ccccc1 [4a-18, (S)-1-(4-((1H-pyrazolopyrimidine-4-yl)oxy)phenyl)-3-(1-phenethyl)urea] | < 50 µM
9 | O=C(Nc1ccc(Oc2ncnc3[nH]ncc23)cc1)Nc1cc(C(F)(F)F)cc(C(F)(F)F)c1 [4a-12, 1-(4-((1H-pyrazolopyrimidine-4-yl)oxy)phenyl)-3-(3,5-bis(trifluoromethyl)phenyl)urea] | < 50 µM
10 | C[C@@H](NC(=O)Nc1ccc(Oc2ncnc3[nH]ncc23)cc1)c1ccccc1 [4a-19, (R)-1-(4-((1H-pyrazolopyrimidine-4-yl)oxy)phenyl)-3-(1-phenethyl)urea] | < 50 µM
11 | 1-(4-((1H-pyrazolopyrimidine-4-yl)oxy)phenyl)-3-(methylcyclohexyl)urea [4a-20] | < 50 µM
12 | 1-(4-((1H-pyrazolopyrimidine-4-yl)oxy)-3-fluorophenyl)-3-(3-trifluoromethoxy)phenyl)urea [4a-8] | 5.7 µM

The remaining lines, values ahead:

Row | IC50 | Compound
13 | 3 to 10 µM | CC(C)(C)c1cc(NC(=O)Nc2ccc(Oc3ncnc4[nH]ncc34)cc2)on1 [4a-25]
14 | < 50 µM | CC(C)(C)c1cc(NC(=O)Nc2ccc(Sc3ncnc4[nH]ncc34)cc2)no1 [4c-3, 1-(4-(1H-pyrazolopyrimidine-4-sulfydryl)phenyl)-3-(5-tert-butylisoxazol-3-yl)urea]
15 | < 50 µM | C[C@H](NC(=O)Nc1ccc(Nc2ncnc3[nH]ncc23)cc1)c1ccccc1 [4b-4]

same assay, conditions: Homo sapiens, HCT-116, 72 hours

Row | Compound | IC50
16 | O=C(Nc1ccc(Oc2ncnc3[nH]ncc23)cc1)Nc1ccc(N2CCOCC2)cc1 [4a-16, 1-(4-((1H-pyrazolopyrimidine-4-yl)oxy)phenyl)-3-(4-morpholinylphenyl)urea] | < 50 µM
17 | O=C(Nc1ccc(Oc2ncnc3[nH]ncc23)cc1)Nc1ccc(C(F)(F)F)cc1 [4a-1] | < 50 µM
18 | O=C(Nc1ccc(Oc2ncnc3[nH]ncc23)cc1)Nc1cccc(C(F)(F)F)c1 [4a-6] | < 50 µM

The next lines start with the values.

Row | IC50 | Compound
19 | < 50 µM | O=C(Nc1cccc(Nc2ncnc3[nH]ncc23)c1)Nc1ccc(F)c(Cl)c1 [4b-1]
20 | < 50 µM | COc1ccc(NC(=O)Nc2ccc(NC(=O)N3C=NC=C4NNC=C43)cc2)cc1 [4b-6, 1-(4-(1H-pyrazolopyrimidine-4-amido)phenyl)-3-(4-methoxyphenyl)urea]
21 | 3 to 10 µM | CC(C)(C)c1cc(NC(=O)Nc2ccc(Oc3ncnc4[nH]ncc34)cc2)no1 [4a-26]
22 | < 50 µM | CC(C)n1ncc2c(Oc3ccc(NC(=O)Nc4cc(C(C)(C)C)on4)cc3)ncnc21 [5a-4, 1-(5-tert-butylisoxazol-3-yl)-3-(4-(1-isopropyl-(1H-pyrazolopyrimidine-4-yl)oxy)phenyl)urea]
23 | < 50 µM | C[C@@H](NC(=O)Nc1ccc(Nc2ncnc3[nH]ncc23)cc1)c1ccccc1 [4b-2, (R)-1-(4-(1H-pyrazolopyrimidine-4-amido)phenyl)-3-(1-phenethyl)urea]
24 | < 50 µM | Cc1cc(C)c(NC(=O)Nc2ccc(NC(=O)N3C=NC=C4NNC=C43)cc2)c(C)c1 [4b-7, 1-(4-(1H-pyrazolopyrimidine-4-amido)phenyl)-3-(2,4,6-trimethylphenyl)urea]
25 | < 50 µM | O=C(Nc1ccc(Oc2ncnc3[nH]ncc23)cc1)Nc1cc(C(F)(F)F)on1 [4a-28]
26 | < 50 µM | COc1cccc(NC(=O)Nc2ccc(Nc3ncnc4[nH]ncc34)cc2)c1 [4b-3]
